{"source": "patent US20210379040A1", "about": "“COMBINATION TREATMENT OF LIVER DISORDERS” (Terns Pharmaceuticals, Inc., priority 2020, published 2021)", "key": {"mouse model of NASH": {"tested_on": "mouse model of NASH", "assay": "Mouse model of NASH (high fat diet + CCl4)", "format": "in vivo, C57/BL6J mice", "protocol": "Hematoxylin & Eosin (H&E) and Sirius Red histological staining of liver tissue was used to quantitate NAFLD activity score (NAS), steatosis, ballooning, inflammation and fibrosis. […] Gene expression of RNA was analyzed by RT-qPCR and RNAseq.\nNAS is calculated based upon liver steatosis, inflammation, and ballooning and was determined by analysis of liver tissue histology using H&E stain. […] Hepatocellular ballooning is a form of liver cell injury associated with cell swelling and is also measured by H&E stained liver sections. The ballooning score is calculated as follows: 0-no hepatocyte ballooning; 1-few ballooning hepatocytes; 2-many hepatocytes with prominent ballooning.\nLiver fibrosis was quantified by histological analysis of the percentage of Sirius Red-positive liver sections. […] Liver triglycerides were measured from liver tissue using a biochemical analyzer (Hitachi-700)."}, "human hepatocytes": {"tested_on": "human hepatocytes", "assay": "In vitro metabolic stability in cryopreserved hepatocytes (human)", "format": "in vitro ADME", "description": "In vitro half-life values were determined and scaled to predict hepatic clearance (CLpred) and hepatic extraction using the well-stirred liver model with no correction for plasma protein as described in Obach et al., The Prediction of Human Pharmacokinetic Parameters from Preclinical and In Vitro Metabolism Data, J. of Pharmacology and Experimental Therapeutics, vol. 283, no. 1, pp. 46-58 (1997)."}, "[1]": {"assay": "Pharmacokinetics assay, monkey", "format": "in vivo, cynomolgus monkeys", "conditions": "plasma, iv, Cynomolgus Monkey, intravenously 0.3 mg/kg", "excerpt": "Results are shown in FIG. 1A (IV administration) and FIG. 1B (oral administration), and in Table 2. […] Smaller Vdss in monkeys is correlated with higher plasma protein binding."}, "[2]": {"assay": "Tissue distribution of radiolabeled (14C) compound, oral 5 mg/kg", "format": "in vivo", "conditions": "Long-Evans rats, oral 5 mg/kg (100 μCi/kg), up to 168 hours", "description": "Plasma, liver, small intestine, cecum, kidney, lung, heart and skin tissue samples were collected up to 168 hours, and the amount of radioactive material at various time points was measured."}, "[3]": {"assay": "Multiple once daily dose study: plasma PK and safety", "format": "in vivo, human", "description": "3 groups of 8 healthy participants were randomized to receive multiple once daily (QD) doses of Compound 2 or matching placebo in a 3:1 ratio for 7 days (1 mg and 4 mg) or 14 days (10 mg). Plasma levels of Compound 2 and PD biomarkers (plasma amine oxidase activity and methylamine levels) were determined at pre-dose and various timepoints post-dose. Safety was assessed for up to 14 days after last dose."}, "plasma SSAO": {"target": "T1, plasma SSAO (Homo sapiens, UniProt Q16853)", "T1 construct": "from tissue; host or cells: plasma of healthy participants", "T1 sequence (Q16853 27-763 limits assumed)": "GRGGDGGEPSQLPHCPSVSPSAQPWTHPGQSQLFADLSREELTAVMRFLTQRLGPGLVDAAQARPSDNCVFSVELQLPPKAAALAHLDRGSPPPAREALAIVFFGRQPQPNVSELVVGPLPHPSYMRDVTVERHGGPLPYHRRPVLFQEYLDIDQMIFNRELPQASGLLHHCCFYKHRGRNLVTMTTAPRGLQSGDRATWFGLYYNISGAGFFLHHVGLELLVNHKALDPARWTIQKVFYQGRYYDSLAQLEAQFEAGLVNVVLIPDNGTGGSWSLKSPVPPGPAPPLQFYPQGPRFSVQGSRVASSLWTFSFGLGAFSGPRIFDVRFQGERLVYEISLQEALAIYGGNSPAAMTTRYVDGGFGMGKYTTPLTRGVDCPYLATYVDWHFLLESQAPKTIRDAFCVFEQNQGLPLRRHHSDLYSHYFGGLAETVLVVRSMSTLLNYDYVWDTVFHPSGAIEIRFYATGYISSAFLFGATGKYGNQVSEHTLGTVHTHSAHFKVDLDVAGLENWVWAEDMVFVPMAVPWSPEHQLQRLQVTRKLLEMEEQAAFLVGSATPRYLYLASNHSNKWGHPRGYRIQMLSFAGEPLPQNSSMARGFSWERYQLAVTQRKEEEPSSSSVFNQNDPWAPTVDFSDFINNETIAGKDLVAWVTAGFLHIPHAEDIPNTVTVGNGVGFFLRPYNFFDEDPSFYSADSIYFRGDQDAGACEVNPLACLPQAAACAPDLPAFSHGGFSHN", "assay": "Single-ascending dose clinical trial: plasma amine oxidase activity and methylamine", "format": "in vivo", "description": "Safety was assessed for 7 (±3) days after dosing.\nPlasma PK parameters were determined by non-compartmental analysis.\nSSAO-specific amine oxidase levels in plasma were determined using a kinetic-based assay essentially as described previously (Schilter et al). Endogenous monoamine oxidases A and B were inhibited by adding pargyline to plasma samples prior to measuring H2O2 generation levels in placebo and active recipients. Maximum inhibition was defined by pre-dose (baseline) samples additionally treated with a high dose of Compound 2 and percent changes in SSAO-specific activity were calculated relative to baseline samples."}, "[4]": {"conditions": "NASH mice, 10, 30, 100 mg/kg, vs untreated NASH mice"}}, "data": [{"molecule": "Cn1cc(C(=O)O)c2ccc(N3CCC(OCc4c(-c5c(Cl)cccc5Cl)noc4C4CC4)CC3)cc21", "note": "[Compound 1]", "values": [{"measurement": "CYP7A1 expression (CPM) Relative to Vehicle", "setting": "mouse model of NASH; NASH mice liver, 30 mg/kg", "value": 0.02}, {"measurement": "CYP8B1 expression (CPM) Relative to Vehicle", "setting": "mouse model of NASH; NASH mice liver, 30 mg/kg", "value": 0.007}, {"measurement": "liver triglycerides", "setting": "mouse model of NASH; NASH mice, 100 mg/kg", "value": "statistically significant reduced triglyceride levels"}, {"measurement": "serum triglyceride concentration", "setting": "mouse model of NASH; NASH mice, 100 mg/kg", "value": "statically significant reduction"}, {"measurement": "serum ALT level", "setting": "mouse model of NASH; NASH mice, 10, 30, 100 mg/kg", "value": "reduced"}, {"measurement": "serum AST level", "setting": "mouse model of NASH; NASH mice, 10, 30, 100 mg/kg", "value": "reduced"}, {"measurement": "ballooning (score)", "setting": "mouse model of NASH; [4]", "value": "significantly reduced"}, {"measurement": "inflammation (score)", "setting": "mouse model of NASH; [4]", "value": "significantly reduced"}, {"measurement": "steatosis (score)", "setting": "mouse model of NASH; [4]", "value": "significantly reduced"}, {"measurement": "serum total cholesterol level", "setting": "mouse model of NASH; NASH mice, 10, 30, and 100 mg/kg", "value": "statistically significant reduction"}, {"measurement": "NAFLD Activity Score (NAS)", "setting": "mouse model of NASH; NASH mice, 10, 30, or 100 mg/kg daily oral, 28 days, vs untreated NASH mice", "value": "significantly lower NAS score"}, {"measurement": "collagen, type 1, alpha 1 expression in the liver", "setting": "mouse model of NASH; NASH mice, 10, 30, or 100 mg/kg, vs control NASH mice", "value": "decreased"}, {"measurement": "Liver fibrosis (Sirius Red-positive area)", "setting": "mouse model of NASH; NASH mice, 10, 30 or 100 mg/kg, vs untreated NASH control", "value": "statistically significant reduced fibrosis"}, {"measurement": "Hepatic Extraction", "setting": "human hepatocytes", "value": "67.0 ± 1.73", "unit": "%"}, {"measurement": "In vitro Metabolic CLpred", "setting": "human hepatocytes; well-stirred liver model", "value": "0.83 ± 0.22", "unit": "L/h/kg"}, {"measurement": "clearance", "setting": "[1]", "value": 0.3, "unit": "L/h/kg"}, {"measurement": "half-life", "setting": "[1]; read-out: IV Terminal t1/2 (converted)", "value": 1.32, "unit": "h"}, {"measurement": "Vd", "setting": "[1]; read-out: Vdss", "value": 0.6, "unit": "L/kg"}, {"measurement": "tissues with the most radioactive material", "setting": "[2]", "value": "Liver, small intestine, and cecum had the most radioactive material"}]}, {"molecule": "COC1CCN(c2ncc(OC/C(=C/F)CN)cn2)CC1", "note": "[Compound 2]", "values": [{"measurement": "plasma PK exposure increases between dose groups", "setting": "[3]; Day 1, QD 1, 4, 10 mg", "value": "greater than dose proportional"}, {"measurement": "half-life versus dose", "setting": "[3]; QD 1, 4, 10 mg", "value": "increased with dose"}, {"measurement": "accumulation after multiple QD doses", "setting": "[3]; each dose level", "value": "significant accumulation"}, {"measurement": "adverse events or laboratory abnormalities", "setting": "[3]; healthy participants, QD 1 mg and 4 mg for 7 days or 10 mg for 14 days", "value": "No clinically relevant adverse events or laboratory abnormalities were reported"}, {"measurement": "time to steady state", "setting": "[3]; highest dose cohort (10 mg QD)", "value": 7, "unit": "days"}, {"measurement": "safety and tolerability", "setting": "[3]; up to 10 mg QD for 14 days", "value": "safe and well tolerated"}, {"measurement": "inhibition of plasma SSAO activity", "setting": "plasma SSAO; 4 hours post-dose, all dose cohorts (1, 3, 6, 10 mg single dose)", "value": "near complete inhibition"}, {"measurement": "duration of continued suppression of plasma SSAO activity", "setting": "plasma SSAO; after a single dose", "value": "up to 1 week"}, {"measurement": "plasma methylamine", "setting": "plasma SSAO; single dose 1, 3, 6, 10 mg", "value": "Dose-dependent increases"}]}]}
